≈ marks a conversion by molar mass, not a printed value.
Experiments:
Type in all cases: cell-based
[1] = test system: colistin resistant MCR (−) E. Cloacae strain 7023456439; assay: Synergy study: colistin MIC in the presence of compound; settings: strain 7023456439 E. Cloacae
Experimental: (§1) The MICs of the individual drugs and LC compound in combinations were determined using the broth microdilution technique as recommended by the CLSI whereby the two anti-microbial agents were added in an equal amount. (e.g.: 50 μL of Colistin: 50 μL of LC compounds). Diluted media containing compounds and antibiotics will be serially diluted 2-fold, and LC compounds and antibiotics alone or in combination will be assayed at fixed synergy concentration. In all cases, the lowest concentration at which no visible growth occurred was be recorded to be the MIC value of individual and combined antibacterial agents. The results were obtained after 24 hours of incubation.

[2] = test system: colistin resistant MCR (−) E. Coli strains; assay: as above
Experimental: as §1

[3] = test system: colistin resistant MCR (+) E. Coli strains; assay: MIC, broth microdilution, compound alone; settings: compound alone
Experimental: (§2) MIC experiments of the antimicrobial agents were determined by a modified broth microdilution method in accordance with the Clinical and Laboratory Standards Institute (CLSI) guidelines using 96 well culture plates. In brief, serial dilutions of all plates were prepared at different concentrations (μg). The inoculum suspension was prepared by adding isolated colonies from a 18-20 hours on TSA plate into phosphate buffer (0.31 mM, pH 7.2) or in water for injection (BBraun) and adjusting the suspension to a turbidity equivalent to 0.5 McFarland Standard. Each well contained a final bacterial concentration of approximately 5×10^5 colony forming units (CFU)/mL. The plate was covered and incubated at 35° C. for 24 hours. […] For the microdilution plates, turbidity in wells can be measured at OD600 using TECAN infinite M200Pro. MIC was determined as […] concentration that gives a 99 percent inhibition.

[4] = test system: colistin resistant MCR (−) E. Cloacae strain 7023456439; assay: MIC, broth microdilution, compound alone; settings: strain 7023456439 E. Cloacae
Experimental: as §2

[5] = test system: colistin resistant MCR (−) E. Coli strains; assay: MIC, broth microdilution, compound alone
Experimental: as §2

[6] = test system: colistin resistant MCR (+) E. Coli strains; assay: Synergy study: colistin MIC in the presence of compound
Experimental: as §1

[7] = compound at 5 μg (Table 2a: 5 ug/ml)
[8] = strain 6083672926, MCR(−), compound at 5 μg (Table 2a: 5 ug/ml)
[9] = strain 7023446108, MCR(−), compound at 5 μg (Table 2a: 5 ug/ml)
[10] = strain 7033607097, MCR(−), compound at 5 μg (Table 2a: 5 ug/ml)
[11] = compound at 10 μg (Table 2a: 10 ug/ml)
[12] = strain 6083672926, MCR(−), compound at 10 μg (Table 2a: 10 ug/ml)
[13] = strain 7023446108, MCR(−), compound at 10 μg (Table 2a: 10 ug/ml)
[14] = strain 7033607097, MCR(−), compound at 10 μg (Table 2a: 10 ug/ml)
[15] = strain 6075066346, MCR(+), compound at 5 μg (Table 2a: 5 ug/ml)
[16] = strain 6083655967, MCR(+), compound at 5 μg (Table 2a: 5 ug/ml)
[17] = strain 7103531927, MCR(+), compound at 5 μg

Structure (SMILES)	Colistin MIC in the presence of the compound [2, 8] [µg/mL]	Colistin MIC in the presence of the compound [2, 9] [µg/mL]	Colistin MIC in the presence of the compound [2, 10] [µg/mL]	MIC ([3]; strain 6075066346, MCR (+)) [µg/mL]	MIC ([3]; strain 6083655967, MCR (+)) [µg/mL]	MIC ([3]; strain 6103645107, MCR (+)) [µg/mL]	MIC ([3]; strain 6123520276, MCR (+)) [µg/mL]	MIC ([3]; strain 7013177695, MCR (+)) [µg/mL]	MIC ([3]; strain 7023436560, MCR (+)) [µg/mL]	MIC ([3]; strain 7023444207, MCR (+)) [µg/mL]	MIC [4] [µg/mL]	MIC ([5]; strain 6083672926, MCR (−)) [µg/mL]	MIC ([5]; strain 7023446108, MCR (−)) [µg/mL]	MIC ([5]; strain 7033607097, MCR (−)) [µg/mL]	Colistin MIC in the presence of the compound [1, 11] [µg/mL]	Colistin MIC in the presence of the compound [2, 12] [µg/mL]	Colistin MIC in the presence of the compound [2, 13] [µg/mL]	Colistin MIC in the presence of the compound [2, 14] [µg/mL]	MIC ([3]; strain 7103531927, MCR (+)) [µg/mL]	Colistin MIC in the presence of the compound [6, 15] [µg/mL]	further results
CC(C)=CCc1c(OCCCCN(CCCN(C)C)CCCN(C)C)ccc(C(=O)/C=C/c2ccc(OCCCCN(CCCN(C)C)CCCN(C)C)cc2)c1O [LC097]	0.195	0.195	0.195	25 (≈ 31 µM)	25 (≈ 31 µM)	12.5 (≈ 15.5 µM)	25 (≈ 31 µM)	12.5 (≈ 15.5 µM)	12.5 (≈ 15.5 µM)	25 (≈ 31 µM)	>25	25 (≈ 31 µM)	12.5 (≈ 15.5 µM)	12.5 (≈ 15.5 µM)	–	–	–	–	–	–	Colistin MIC in the presence of the compound [1, 7]: >12.5 µg/mL
CC(C)=CCc1c(OCCCCN(C)CCCN(C)C)ccc(C(=O)/C=C/c2ccc(OCCCCN(C)CCCN(C)C)cc2)c1O [LC098]	0.195	0.195	0.195	6.25 (≈ 9.4 µM)	6.25 (≈ 9.4 µM)	6.25 (≈ 9.4 µM)	6.25 (≈ 9.4 µM)	6.25 (≈ 9.4 µM)	6.25 (≈ 9.4 µM)	6.25 (≈ 9.4 µM)	>25	12.5 (≈ 18.8 µM)	6.25 (≈ 9.4 µM)	6.25 (≈ 9.4 µM)	–	–	–	–	–	–	Colistin MIC in the presence of the compound [1, 7]: 25 µg/mL
COC(=O)C(CCCNC(=N)N)NC(=O)COc1ccc(C2COc3c(ccc4c3C=CC(C)(C)O4)C2)c(OCC(=O)NC(CCCNC(=N)N)C(=O)OC)c1 (stereo not drawn) [LC106]	–	–	–	>25	>25	>25	>25	>25	>25	>25	>25	>25	>25	>25	>25	12.5	6.25	6.25	–	–	–
CC1(C)C=Cc2c(ccc3c2OCC(c2ccc(OCC(=O)NC(CCCNC(=N)N)C(N)=O)cc2OCC(=O)NC(CCCNC(=N)N)C(N)=O)C3)O1 (stereo not drawn) [LC127]	–	–	–	>50	>50	>50	>50	>50	>50	>50	>50	>50	>50	>50	>12.5	12.5	6.25	6.25	–	–	–
CC(C)=CCc1c(OCC(=O)NC(CCCNC(=N)N)C(N)=O)ccc(C(=O)/C=C/c2ccc(OCC(=O)NC(CCCNC(=N)N)C(N)=O)cc2)c1O (stereo not drawn) [LC131]	–	–	–	>50	>50	>50	>50	>50	>50	>50	>50	>50	>50	>50	>12.5	12.5	6.25	6.25	–	–	–
CCOC(=O)C(CCCNC(=N)N)NC(=O)COc1ccc(/C=C/C(=O)c2ccc(OCC(=O)NC(CCCNC(=N)N)C(=O)OCC)c(CC=C(C)C)c2O)cc1 (stereo not drawn) [LC137]	≤0.0975	≤0.0975	≤0.0975	12.5 (≈ 15.5 µM)	12.5 (≈ 15.5 µM)	–	–	–	–	–	–	12.5 (≈ 15.5 µM)	12.5 (≈ 15.5 µM)	12.5 (≈ 15.5 µM)	–	–	–	–	12.5 (≈ 15.5 µM)	–	synergy with colistin ([6]; against mcr-1 bacteria, in words): excellent synergy; Colistin MIC in the presence of the compound ([6]; strain 6083655967, MCR(+), compound at 3 μg): 0.78 µg/mL; Colistin MIC in the presence of the compound ([6]; strain 7103531927, MCR(+), compound at 3 μg): 0.39 µg/mL; Colistin MIC in the presence of the compound ([2]; strain 6083672926, MCR(−), compound at 3 μg): 6.25 µg/mL; Colistin MIC in the presence of the compound ([2]; strain 6083672926, MCR(−), compound at 4 μg): 0.195 µg/mL; Colistin MIC in the presence of the compound ([2]; strain 7023446108, MCR(−), compound at 3 μg): 0.39 µg/mL; Colistin MIC in the presence of the compound ([2]; strain 7023446108, MCR(−), compound at 4 μg): <0.0975 µg/mL; Colistin MIC in the presence of the compound ([2]; strain 7033607097, MCR(−), compound at 3 μg): 0.195 µg/mL; Colistin MIC in the presence of the compound ([2]; strain 7033607097, MCR(−), compound at 4 μg): <0.0975 µg/mL
CCN(CC)CCOc1ccc(/C=C/C(=O)c2ccc(OCCN(CC)CC)c(CC=C(C)C)c2O)cc1 [LC150]	0.195	0.39	0.195	>50	>50	–	–	–	–	–	–	50 (≈ 95.7 µM)	50 (≈ 95.7 µM)	50 (≈ 95.7 µM)	–	–	–	–	>50	0.39	Colistin MIC in the presence of the compound [6, 16]: 0.195 µg/mL; Colistin MIC in the presence of the compound [6, 17]: 0.39 µg/mL
CCN(CC)CCCOc1ccc(/C=C/C(=O)c2ccc(OCCCN(CC)CC)c(CC=C(C)C)c2O)cc1 [LC204]	0.39	0.39	0.39	>50	>50	–	–	–	–	–	–	>50	>50	>50	–	–	–	–	>50	0.39	Colistin MIC in the presence of the compound [6, 16]: 0.39 µg/mL; Colistin MIC in the presence of the compound [6, 17]: 0.39 µg/mL
CC(C)=CCc1c(OCCCN2CCNCCNCCNCC2)ccc(C(=O)/C=C/c2ccc(OCCCN3CCNCCNCCNCC3)cc2)c1O [LC206]	0.39	0.39	0.39	>50	>50	–	–	–	–	–	–	>50	>50	>50	–	–	–	–	>50	0.39	Colistin MIC in the presence of the compound [6, 16]: 0.39 µg/mL; Colistin MIC in the presence of the compound [6, 17]: 0.39 µg/mL
CC(C)=CCc1c(OCCC[N+](C)(C)C)ccc(C(=O)/C=C/c2ccc(OCCC[N+](C)(C)C)cc2)c1O [LC312]	–	–	–	12.5	12.5	12.5	12.5	12.5	6.25	12.5	>50	12.5	6.25	12.5	>12.5	<0.0975	<0.0975	<0.0975	–	–	–

From US12473250B2, “Molecular design of new antibiotics and antibiotic adjuvants against MCR strains” (priority 2019, dated 2025)
